Laboratory results reported in patent US20170027172A1, “USE OF SUBSTITUTE OXO TETRAHYDROQUINOLINE SULFONAMIDES OR SALTS THEREOF FOR RAISING STRESS TOLERANCE OF PLANTS” (BAYER CROPSCIENCE AKTIENGESELLSCHAFT, priority 2014, published 2017).

How the values were obtained:
Triticum aestivum [1] = experiment: Drought stress greenhouse test Part B, visual scoring vs stressed control plants; type: in vivo; conditions: spray application 250 g/ha, efficacy range of 2-3 pots
Method: (§1) Seeds of monocotyledonous and dicotyledonous crop plants were sown in sandy loam in plastic pots, covered with soil or sand and cultivated in a greenhouse under good growth conditions. The trial plants were treated at the early leaf stage (BBCH10-BBCH13). To assure uniform water supply before commencement of stress, the potted plants were supplied with water by dam irrigation prior to substance application.
(§2) The inventive compounds formulated in the form of wettable powders (WP) were sprayed onto the green parts of the plants as an aqueous suspension at an equivalent water application rate of 600 l/ha with addition of 0.2% wetting agent (e.g. agrotin). Substance application was followed immediately by stress treatment of the plants.
(§3) Drought stress was induced by gradual drying out under the following conditions:
“Day”: 14 hours with illumination at 26-30° C. “Night”: 10 hours without illumination at 18-20° C.
(§4) The duration of the respective stress phases was guided mainly by the condition of the stressed control plants. It was ended (by re-irrigating and transfer to a greenhouse with good growth conditions) as soon as irreversible damage was observed on the stressed control plants.
(§5) The end of the stress phase was followed by an about 4-7-day recovery phase, during which the plants were once again kept under good growth conditions in a greenhouse. The duration of the recovery phase was guided mainly by when the trial plants had attained a state which enabled visual scoring of potential effects, and is therefore variable.
(§6) Once this juncture had been reached, the appearance of the plants treated with test substances was recorded in comparison to the stressed control plants by the following categories:
For each substance and dosage, 2-3 pots were treated and evaluated.
(§7) BRSNS=Brassica napus TRZAS=Triticum aestivum

[2] = target: T1, phosphatase ABI1 via the co-regulator RCAR11/PYR1 (Arabidopsis thaliana, UniProt O49686+P49597); experiment: In vitro inhibition of the phosphatase ABI1 via the co-regulator RCAR11/PYR1, MUP dephosphorylation; type: biochemical; design: dose or concentration left out as unconfirmed; conditions: in a solution of DMSO and water; fluorescence at 460 nm
T1 sequence (O49686 1-191): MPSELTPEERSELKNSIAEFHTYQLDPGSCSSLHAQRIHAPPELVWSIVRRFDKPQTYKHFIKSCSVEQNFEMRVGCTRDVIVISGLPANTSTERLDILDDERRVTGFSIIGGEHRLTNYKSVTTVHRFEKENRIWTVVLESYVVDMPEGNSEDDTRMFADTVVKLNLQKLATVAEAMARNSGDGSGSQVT
T1 sequence (P49597 1-434): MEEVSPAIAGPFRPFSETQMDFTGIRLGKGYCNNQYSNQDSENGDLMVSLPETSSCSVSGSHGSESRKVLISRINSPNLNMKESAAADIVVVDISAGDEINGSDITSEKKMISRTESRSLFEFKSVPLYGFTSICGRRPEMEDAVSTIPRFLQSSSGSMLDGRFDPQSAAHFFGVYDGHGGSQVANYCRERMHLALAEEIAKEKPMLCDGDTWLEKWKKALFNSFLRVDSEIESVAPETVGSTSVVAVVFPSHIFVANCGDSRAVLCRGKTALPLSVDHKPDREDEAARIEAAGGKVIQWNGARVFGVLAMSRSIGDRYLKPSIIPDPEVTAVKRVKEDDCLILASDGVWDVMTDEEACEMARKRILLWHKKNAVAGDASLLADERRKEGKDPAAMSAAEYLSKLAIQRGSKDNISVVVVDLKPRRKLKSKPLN
Summary of the method: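 Arabidopsis ABI1 (0.15 μg/well) with RCAR11/PYR1 (0.30 μg/well) in Tris-HCl pH 8, NaCl, MnCl2, DTT, Tween20; MUP substrate, 20 min at 35 °C, fluorescence ex 340/em 460 nm. Compounds tested at 5 mM in DMSO/water, optionally pre-treated with porcine liver esterase; inhibition banded ≥90/70/50/30%.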

Triticum aestivum [3] = experiment: Drought stress greenhouse test Part A, visual scoring vs stressed control plants; type: in vivo; design: key: 0: no effect; 10: slight positive effect; 20: clear positive effect; 30: strong positive effect; conditions: average score of 3 pots
Method: as §1, §2, §3
“Day”: 14 hours with illumination at ˜26-30° C. “Night”: 10 hours without illumination at ˜18-20° C.
as §4
as §5, with “and was” for “and is”
as §6
In order to rule out any influence on the effects observed by any fungicidal or insecticidal action of the test compounds, it was additionally ensured that the tests proceeded without fungal infection or insect infestation.
In each test, for each crop and dosage, plants in 3 pots were treated and evaluated separately. The values reported in Tables A-1 to A-2 below for the effects obtained are averages from the scores obtained.
as §7

Triticum aestivum [4] = experiment: Drought stress greenhouse test Part C, visual scoring vs stressed control plants; type: in vivo; conditions: efficacy range of 3-4 pots
Method: Seeds of monocotyledonous and dicotyledonous crop plants were sown in sandy loam in plastic or wood-fiber pots, covered with soil or sand and cultivated in a greenhouse under good growth conditions. The trial plants were treated at the early leaf stage (BBCH10-BBCH13). To assure uniform water supply before commencement of stress, the potted plants were supplied with water by dam irrigation prior to substance application. The inventive compounds were first formulated as wettable powders (WP) or dissolved in a solvent mixture. The further dilution was effected with water supplemented with 0.2% wetting agent (e.g. agrotin). The finished spray liquor was sprayed onto the green parts of the plant at an equivalent water application rate of 600 l/ha. Substance application was followed immediately by stress treatment of the plants. For this purpose, the wood-fiber pots were transferred in plastic inserts in order to prevent them from subsequently drying out too quickly. Drought stress was induced by gradual drying out under the following conditions: “Day”: 14 hours with illumination at 26-30° C. “Night”: 10 hours without illumination at 18-20° C. The duration of the respective stress phases was guided mainly by the condition of the stressed control plants. It was ended (by re-irrigating and transfer to a greenhouse with good growth conditions) as soon as irreversible damage was observed on the stressed control plants. The end of the stress phase was followed by an about 4-7-day recovery phase, during which the plants were once again kept under good growth conditions in a greenhouse. The duration of the recovery phase was guided mainly by when the trial plants had attained a state which enabled visual scoring of potential effects, and was therefore variable. Once this juncture had been reached, the appearance of the plants treated with test substances was recorded in comparison to the stressed control plants by the following categories: [table] For each substance and dosage, 3-4 pots were treated and evaluated. […] BRSNS=Brassica napus TRZAS=Triticum aestivum

Triticum aestivum [5] = experiment: Drought stress test on wheat Part D, reduction in damage intensity from fresh weights; type: in vivo; conditions: efficacy = reduction in damage intensity (fresh weight) under drought stress, 250 g/ha, at least three repeats
Text: Wheat grains were sown in a standardized number in sandy loam soil plastic pots, covered with soil or sand and grown in a greenhouse under good growth conditions. Pots with uneven degrees of emergence were excluded prior to the start of the trial. The treatment with test substances was effected at the early leaf stage (BBCH10-BBCH13). To assure uniform water supply, the potted plants were supplied with water by dam irrigation prior to substance application. The inventive compounds were first formulated as wettable powders (WP) or dissolved in a solvent mixture. The further dilution was effected with water supplemented with 0.2% wetting agent (e.g. agrotin). The finished spray liquor was sprayed onto the green parts of the plant at an equivalent water application rate of 600 l/ha. Substance application was followed immediately by stress treatment of the plants. Drought stress was induced by gradual drying out under the following conditions: “Day”: 14 hours with illumination at 26-30° C. “Night”: 10 hours without illumination at 18-20° C. The duration of the respective stress phases was guided mainly by the condition of the stressed control plants. It was ended (by re-irrigating and transfer to a greenhouse with good growth conditions) as soon as irreversible damage was observed on the stressed control plants. The end of the stress phase was followed by an about 7-day recovery phase, during which the plants were once again kept under good growth conditions in a greenhouse. The exact duration of the recovery phase was variable for reasons related to the trial. At the end of the recovery phase, the fresh weights of the plant parts above ground were determined. By comparison with unstressed control plants which were kept under good growth conditions over the entire duration of the trial, percentage damage intensities were first calculated from the fresh weight values. The reduction in damage intensity resulting from treatment with test substance was then calculated by the following formula: [formula] EF: Efficacy DIs: Damage intensity of the stressed control plants DIt: Damage intensity of the stressed plants treated with test compound The values reported in table D-1 below are results from at least three repeats. BRSNS=Brassica napus TRZAS=Triticum aestivum

SMILES | ABI1 inhibition [2] | Effect (TRZAS) (Triticum aestivum [4]; spray application 250 g/ha) | further results
O=C1CCc2cc(NS(=O)(=O)Cc3ccc(F)cc3)ccc2N1CC(F)F [A1-158] | +++ (90%>inhibition≧70%) | – | Effect (TRZAS) (Triticum aestivum [1]): 10-20
Cc1ccc(CS(=O)(=O)Nc2ccc3c(c2)CCC(=O)N3CC2CC2)cc1 [A19-152] | ++++ (inhibition≧90%) | – | Effect (TRZAS) (Triticum aestivum [3]; spray application 25 g/ha): 20
N#Cc1ccc(CS(=O)(=O)Nc2ccc3c(c2)CCC(=O)N3CC2CC2)cc1 [A19-181] | ++++ (inhibition≧90%) | – | Effect (TRZAS) (Triticum aestivum [1]): 10-20
N#Cc1cccc(CS(=O)(=O)Nc2ccc3c(c2)CCC(=O)N3CC2CC2)c1 [A19-182] | ++ (70%>inhibition≧50%) | – | Effect (TRZAS) (Triticum aestivum [3]; spray application 25 g/ha): 20; Effect (TRZAS) (Triticum aestivum [3]; spray application 250 g/ha): 20-30
Cc1ccc(CS(=O)(=O)Nc2ccc3c(c2)CCC(=O)N3CC2CC2)cc1F [A19-357, N-[1-(Cyclopropylmethyl)-2-oxo-1,2,3,4-tetrahydroquinolin-6-yl]-1-(3-fluoro-4-methylphenyl)methanesulfonamide] | ++++ (inhibition≧90%) | – | Effect (TRZAS) (Triticum aestivum [1]): 10-20
COCCN1C(=O)CCc2cc(NS(=O)(=O)Cc3ccc(Cl)cc3)ccc21 [A38-165] | ++++ (inhibition≧90%) | 10-30 | –
Cc1ccc(CS(=O)(=O)Nc2ccc3c(c2)CCC(=O)N3CCSC(F)(F)F)cc1 [A42-152] | +++ (90%>inhibition≧70%) | – | Effect (TRZAS) (Triticum aestivum [4]; spray application 25 g/ha): 10-20
O=C1CCc2cc(NS(=O)(=O)Cc3ccc(C(F)(F)F)cc3)ccc2N1CC12CC3CC(CC(C3)C1)C2 [A46-178] | – | – | Effect (TRZAS) (Triticum aestivum [4]; spray application 25 g/ha): 20-30
COC(=O)CN1C(=O)CCc2cc(NS(=O)(=O)Cc3ccc(C)cc3)ccc21 [A50-152] | ++++ (inhibition≧90%) | 10-20 | –
COC(=O)CN1C(=O)CCc2cc(NS(=O)(=O)Cc3cccc(Br)c3)ccc21 [A50-173] | – | – | Effect (TRZAS) (Triticum aestivum [4]; spray application 25 g/ha): 10-20
COC(=O)CN1C(=O)CCc2cc(NS(=O)(=O)Cc3ccc([N+](=O)[O-])cc3)ccc21 [A50-175] | +++ (90%>inhibition≧70%) | – | Effect (TRZAS) (Triticum aestivum [4]; spray application 25 g/ha): 10-20
COC(=O)CN1C(=O)CCc2cc(NS(=O)(=O)Cc3cccc(C#N)c3)ccc21 [A50-182] | – | 10-20 | –
COC(=O)CCN1C(=O)CCc2cc(NS(=O)(=O)Cc3ccc(Br)cc3)ccc21 [A51-172] | ++++ (inhibition≧90%) | 10-20 | –
CC1(C)CC(=O)N(CC(F)(F)F)c2ccc(NS(=O)(=O)c3ccc(C#N)cc3)cc21 [B2-45] | – | – | Effect (TRZAS) (Triticum aestivum [3]; spray application 25 g/ha): 20
CC1(C)CC(=O)N(CC(F)(F)F)c2ccc(NS(=O)(=O)Cc3ccc(Cl)cc3)cc21 [B2-165] | – | – | Effect (TRZAS) (Triticum aestivum [3]; spray application 25 g/ha): 20
CC1(C)CC(=O)N(CC(F)(F)F)c2ccc(NS(=O)(=O)CCc3ccc(Cl)cc3)cc21 [B2-291] | – | – | Effect (TRZAS) (Triticum aestivum [3]; spray application 25 g/ha): 20; Effect (TRZAS) (Triticum aestivum [3]; spray application 250 g/ha): 30
COC(=O)CN1C(=O)CC(C)(C)c2cc(NS(=O)(=O)Cc3ccc(Cl)cc3)ccc21 [B50-165] | – | 10-20 | –
COC(=O)CCN1C(=O)CC(C)(C)c2cc(NS(=O)(=O)Cc3ccc(C)cc3)ccc21 [B51-152] | – | 10-20 | EF [%] (TRZAS) (Triticum aestivum [5]): 16%
COC(=O)CCN1C(=O)CC(C)(C)c2cc(NS(=O)(=O)Cc3ccc(Br)cc3)ccc21 [B51-172] | – | – | Effect (TRZAS) (Triticum aestivum [4]; spray application 25 g/ha): 10-20
CCOC(=O)CCN1C(=O)CC(C)(C)c2cc(NS(=O)(=O)Cc3ccc(C#N)cc3)ccc21 [B52-181] | – | 10-20 | EF [%] (TRZAS) (Triticum aestivum [5]): 14%
CCC1(C)CC(=O)N(CC2CC2)c2ccc(NS(=O)(=O)Cc3ccc(F)cc3)cc21 (stereo not drawn) [F3-158] | – | – | Effect (TRZAS) (Triticum aestivum [4]; spray application 25 g/ha): 10-20
CCC1(C)CC(=O)N(CC2CC2)c2ccc(NS(=O)(=O)Cc3cccc(Cl)c3)cc21 (stereo not drawn) [F3-166] | – | 10-20 | –
CCC1(C)CC(=O)N(CCOC)c2ccc(NS(=O)(=O)Cc3ccccc3)cc21 (stereo not drawn) [F7-151] | – | – | Effect (TRZAS) (Triticum aestivum [4]; spray application 25 g/ha): 10-20
CCC1(C)CC(=O)N(CCOC)c2ccc(NS(=O)(=O)Cc3ccc(F)cc3)cc21 (stereo not drawn) [F7-158] | – | 10-20 | –
CCC1(C)CC(=O)N(CCOC)c2ccc(NS(=O)(=O)Cc3cccc(Cl)c3)cc21 (stereo not drawn) [F7-166] | – | 10-20 | –
COCCN1C(=O)CC2(CCCCC2)c2cc(NS(=O)(=O)Cc3cccc(Cl)c3)ccc21 [I5-166] | – | 10-20 | –
COCCN1C(=O)CC2(CCCCC2)c2cc(NS(=O)(=O)Cc3ccc(C(F)(F)F)cc3)ccc21 [I5-178] | – | 10-30 | –
O=C1CC2(CCC2)c2cc(NS(=O)(=O)Cc3ccc(Cl)cc3)ccc2N1CC1CC1 [J3-165] | – | 10-20 | –
